Reference: US20260283922A1, “Particles of Hydrophobic-Chain-Modified Monosaccharides and Cyclodextrin” (PARIS SCIENCES ET LETTRES, priority 2023, published 2026)

Experiments:
[1] = Solubility study of ML; assay type: physicochemical; conditions: without α-CD, before stirring
Procedure: The solubility study of ML was carried out in water, methanol and methanol/chloroform mixture 1/1 v/v. In 10 mL glass vials, 10 mg of ML were added to 500 μL of solvent and left under magnetic stirring at 300 rpm at 25° C.

[2] = Thermogravimetric analysis; assay type: physicochemical; conditions: α-CD value at 420° C.
Procedure: The thermal behavior of ML/α-CD at 5 mg·mL^−1 and 70 mg·mL^−1 respectively and uncomplexed α-CD were studied using thermogravimetric analysis (FIG. 14).

solubility of ML in water [1] | Structure (SMILES) | residual mass percentage [2]
insoluble | CCCCCCCCCCCCCCCCCC(=O)NCCCO[C@H]1O[C@H](CO)[C@@H](O)[C@H](O)[C@@H]1O [ML, 3-octadecanoylamino-α-D mannopyranoside] | 
 | OC[C@H]1O[C@@H]2O[C@H]3[C@H](O)[C@@H](O)[C@@H](O[C@H]4[C@H](O)[C@@H](O)[C@@H](O[C@H]5[C@H](O)[C@@H](O)[C@@H](O[C@H]6[C@H](O)[C@@H](O)[C@@H](O[C@H]7[C@H](O)[C@@H](O)[C@@H](O[C@H]1[C@H](O)[C@H]2O)O[C@@H]7CO)O[C@@H]6CO)O[C@@H]5CO)O[C@@H]4CO)O[C@@H]3CO [α-CD, alpha-cyclodextrin] | 0%
